Measured values published in ChEMBL document CHEMBL5729279, “Cycloalkyl-diamines for the treatment of inflammation” (2022).
pKi: −log10 of the molar value.

Molecular target: Sigma non-opioid intracellular receptor 1 (Homo sapiens, UniProt Q99720)
Assay: Pharmacological Activity: Ki determinations were generously provided by the National Institute of Mental Health's Psychoactive Drug Screening Program (PDSP).

Chain of Sigma non-opioid intracellular receptor 1 (Q99720 whole entry): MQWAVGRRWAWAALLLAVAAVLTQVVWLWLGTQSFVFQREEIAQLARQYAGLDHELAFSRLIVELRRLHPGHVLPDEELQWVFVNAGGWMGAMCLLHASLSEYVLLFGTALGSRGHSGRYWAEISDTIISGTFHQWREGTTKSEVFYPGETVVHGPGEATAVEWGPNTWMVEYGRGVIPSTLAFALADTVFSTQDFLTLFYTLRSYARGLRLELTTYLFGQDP

For CN[C@@]1(c2ccccc2Cl)CCCCC1NCCCN1CCCC1 (stereo partly specified), the pKi was 7.43.
